The results in this text go back to ChEMBL document CHEMBL1201862, “PubChem BioAssay data set” (2004).

Among the test systems are 786-0; CCRF-CEM; DU-145; HCT-15; HOP-62; M14; MCF7; MOLT-4; NCI-H460; SF-539; SK-MEL-28; SK-MEL-5; SR; U-251; UACC-62; UO-31; KM12; RXF 393.
What all share (assay): DTP human tumour cell line panel, 48 h

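Step 1: Grow cells in 96-well plates. Step 2: Expose to compound for 48 hours at 5 concentrations. Step 3: Interpolate endpoints linearly; if unreached, use highest concentration. At the GI50, growth is halved.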 Active and inactive are the calls of the source. Cut-off read from the data, not from the text of the source: active = GI50 up to about 1.1 µM and inactive = higher.

Take `CC1=CC[C@@H]2[C@@H](CC[C@@]2(C)O)C(C)(C)[C@H]1CC[C@@H]1[C@@]2(C)CC[C@@H](O)C(C)(C)O[C@@H]2CC[C@]1(C)O`: the GI50 is 18.3 µM (inactive) in the test with 786-0; > 10 µM (inactive) in the test on CCRF-CEM; 36.3 µM (inactive) with DU-145; 18.2 µM with HCT-15; 23.2 µM (inactive) with HOP-62; 22.5 µM (inactive) with M14. Moreover, the GI50 is 31 µM (inactive) in the test on MCF7; 17.9 µM (inactive) with MOLT-4; 17.7 µM (inactive) in the test with NCI-H460; 19.6 µM (inactive) in the test with SF-539; 16.8 µM (inactive) with SK-MEL-28; 13.3 µM (inactive) in the test with SK-MEL-5. For the same compound, the GI50 was 14.9 µM (inactive) in the test with SR, 17.1 µM (inactive) in the test with U-251, 15.5 µM (inactive) in the test with UACC-62 and 17 µM (inactive) in the test on UO-31.
For the compound `CN(C)CCC(=O)/C=C\c1ccccc1`, the GI50 in the test on 786-0 is 16.3 µM (inactive); in the test on CCRF-CEM, 4.06 µM (inactive); in the test with HCT-15, 16.1 µM; with HOP-62, 67.3 µM (inactive); in the test with KM12, 15 µM (inactive); in the test on M14, 16.7 µM (inactive). Besides, the GI50 is 13.5 µM (inactive) with MOLT-4; 18.9 µM (inactive) in the test with NCI-H460; 15.6 µM (inactive) in the test with RXF 393; 16.8 µM (inactive) with SF-539; 16.9 µM (inactive) in the test on SK-MEL-28; 17.6 µM (inactive) with SK-MEL-5. Moreover, the GI50 was 15 µM (inactive) in the test on SR, 17.5 µM (inactive) in the test with U-251, 17.4 µM (inactive) in the test on UACC-62 and 17.6 µM (inactive) with UO-31.
Take `COc1ccc([C@@H]2CC(=O)NCCCCNCCCN2)cc1`: the GI50 in the test with 786-0 was > 100 µM (inactive); in the test with CCRF-CEM, > 100 µM (inactive); in the test with HCT-15, more than 100 µM; in the test on HOP-62, > 100 µM (inactive); in the test on KM12 it was > 100 µM (inactive); in the test with M14, > 100 µM (inactive). Also, the GI50 with MOLT-4, in the test on NCI-H460, in the test on RXF 393, in the test on SF-539, in the test on SK-MEL-28 and in the test with SK-MEL-5 was > 100 µM (inactive) each time. For the same compound, the GI50 in the test on SR, in the test with U-251, in the test on UACC-62 and in the test with UO-31 was > 100 µM (inactive) throughout.
Turning to `CCN(CC)CCCCC1CCN(CC(=O)N2c3ccccc3NC(=O)CC2C)CC1` (stereo not given), the GI50 in the test on 786-0 is > 100 µM (inactive); in the test on CCRF-CEM it was 65.8 µM (inactive); in the test with HCT-15, more than 100 µM; in the test with HOP-62, > 100 µM (inactive); with KM12 it was > 100 µM (inactive); with M14, > 100 µM (inactive). The GI50 in the test on MOLT-4 is > 100 µM (inactive); in the test on NCI-H460, > 100 µM (inactive); with RXF 393, 76.7 µM (inactive); in the test on SF-539, > 100 µM (inactive); in the test with SK-MEL-28, > 100 µM (inactive); in the test with SK-MEL-5, 98.4 µM (inactive). Further, the GI50 in the test with SR is 56.6 µM (inactive); in the test with U-251, > 100 µM (inactive); in the test with UACC-62, > 100 µM (inactive); in the test on UO-31 it was > 100 µM (inactive).
With `CCCCCCCCCCCCCC(=O)OCC1OC(n2cc(F)c(=O)[nH]c2=O)C(N)C(OC(=O)CCCCCCCCCCCCC)C1O` (stereo not given), the GI50 in the test with 786-0 is > 100 µM (inactive); in the test with CCRF-CEM, > 10 µM (inactive); in the test on HCT-15, more than 100 µM; in the test with HOP-62, > 100 µM (inactive); with KM12, > 100 µM (inactive); in the test on M14, > 100 µM (inactive). Further, the GI50 was > 100 µM (inactive) in the test on MOLT-4; > 100 µM (inactive) in the test with NCI-H460; > 100 µM (inactive) in the test on RXF 393; 42.7 µM (inactive) in the test on SF-539; > 100 µM (inactive) with SK-MEL-28; > 100 µM (inactive) in the test on SK-MEL-5. Also, the GI50 in the test on SR, with U-251, in the test with UACC-62 and in the test on UO-31 was > 100 µM (inactive) in each case.
`CC1=NN(C(=O)CC(=O)N(C(=O)c2ccccc2Cl)c2ccc(C)cc2)C(=O)C1/N=N/c1ccc([N+](=O)[O-])cc1` (stereo not given): the GI50 with 786-0 was 29 µM (inactive); in the test on CCRF-CEM, > 49.8 µM (inactive); in the test on HCT-15 it was more than 43.8 µM; in the test with HOP-62, 53.5 µM (inactive); in the test on KM12, > 65.5 µM (inactive); in the test on M14, > 96.2 µM (inactive). Besides, the GI50 in the test with MOLT-4 is > 100 µM (inactive); with NCI-H460, > 47.3 µM (inactive); in the test on RXF 393 it was 23.4 µM (inactive); in the test on SF-539 it was 23.7 µM (inactive); with SK-MEL-28, > 100 µM (inactive); in the test on SK-MEL-5, 99.1 µM (inactive). Moreover, the GI50 with SR was > 100 µM (inactive); in the test with U-251 it was 19.6 µM (inactive); in the test with UACC-62, 21.6 µM (inactive); in the test on UO-31, 44 µM (inactive).
For `Cc1nc2sccn2c1C(=O)N/N=C1\SCC(=O)N1C`, the GI50 was > 100 µM (inactive) with 786-0; > 100 µM (inactive) with CCRF-CEM; more than 100 µM in the test with HCT-15; > 100 µM (inactive) in the test with HOP-62; > 100 µM (inactive) with KM12; > 100 µM (inactive) with MOLT-4. Besides, the GI50 in the test on NCI-H460, in the test on RXF 393, in the test with SF-539, in the test on SK-MEL-28, with SK-MEL-5 and in the test on SR was > 100 µM (inactive) in each case. For the same compound, the GI50 with U-251 and in the test on UACC-62 was > 100 µM (inactive) each time.
Regarding `O=C(/C=C/c1ccccc1Cl)c1cccc2ccccc12`, the GI50 in the test with 786-0 is 5.15 µM (inactive); in the test on CCRF-CEM it was 4.82 µM (inactive); with HCT-15 it was 3.75 µM; in the test with HOP-62 it was 14.3 µM (inactive); in the test with KM12 it was 5.24 µM (inactive); in the test with M14, 16.3 µM (inactive). Further, the GI50 is 2.16 µM (inactive) in the test on MOLT-4; 2.82 µM (inactive) with NCI-H460; 14 µM (inactive) in the test with RXF 393; 10.8 µM (inactive) in the test on SF-539; 13.7 µM (inactive) in the test on SK-MEL-28; 19.4 µM (inactive) with SK-MEL-5. For the same compound, the GI50 with SR is 2.52 µM (inactive); in the test on U-251 it was 2.66 µM (inactive); with UACC-62 it was 15.2 µM (inactive); in the test with UO-31, 9.2 µM (inactive).
Take `COC(=O)[C@@H](C)[C@H]1CC[C@@](C)(CCC2=C(C)CC3C=C(C)CCC3C2(C)C)OO1` (stereo not given in full): the GI50 in the test on 786-0 is 0.117 µM (active); in the test with CCRF-CEM, 0.165 µM (active); in the test on HCT-15, 1.31 µM; in the test with HOP-62, 2.06 µM (inactive); in the test with KM12, 1.42 µM (inactive); with M14 it was 1.73 µM (inactive). The 50% growth inhibitory concentration (GI50) with MOLT-4 was 1.04 µM (active); in the test on NCI-H460, 1.5 µM (inactive); in the test on RXF 393, 1.37 µM (inactive); with SF-539, 1.82 µM (inactive); in the test on SK-MEL-28, 1.65 µM (inactive); in the test with SK-MEL-5, 1.49 µM (inactive). For the same compound, the GI50 in the test with SR is 1.57 µM (inactive); with U-251, 1.42 µM (inactive); with UACC-62, 1.94 µM (inactive); in the test with UO-31, 1.45 µM (inactive).
On to `O=C(O)CCCSC(=O)Nc1ccc(/N=N/c2ccccc2)cc1`, for which the GI50 in the test on 786-0 was > 100 µM (inactive); with CCRF-CEM, 31.7 µM (inactive); in the test on HCT-15, more than 100 µM; with HOP-62, > 100 µM (inactive); in the test on KM12, > 100 µM (inactive); in the test on M14 it was > 100 µM (inactive). Besides, the GI50 in the test on MOLT-4 was 9.68 µM (inactive); in the test on NCI-H460, > 100 µM (inactive); in the test on RXF 393, > 100 µM (inactive); in the test on SF-539 it was > 100 µM (inactive); in the test with SK-MEL-28, > 100 µM (inactive); in the test with SR, > 100 µM (inactive). Moreover, the GI50 in the test with U-251, with UACC-62 and with UO-31 was > 100 µM (inactive) in each case.
With `COc1ccc(C(=O)C2=NON3OC23C(=O)c2ccc(OC)cc2)cc1` (stereo not given), the GI50 with 786-0 is 3.44 µM (inactive); in the test on CCRF-CEM it was 2.34 µM (inactive); with HCT-15, 15.5 µM; in the test on HOP-62 it was > 100 µM (inactive); with KM12, 19.2 µM (inactive); with M14, 15.4 µM (inactive). Besides, the GI50 with MOLT-4 was 2.59 µM (inactive); in the test with NCI-H460 it was 20.6 µM (inactive); with RXF 393 it was 4.09 µM (inactive); in the test on SF-539, 10.3 µM (inactive); in the test on SK-MEL-28, 17.9 µM (inactive); in the test with SK-MEL-5 it was 14.1 µM (inactive). For the same compound, the GI50 in the test with SR was 2.56 µM (inactive); in the test with U-251, 16 µM (inactive); in the test on UACC-62 it was 17.8 µM (inactive); in the test with UO-31 it was 14.1 µM (inactive).
With `COc1ccc(C(=O)C#Cc2cnc(O)nc2O)cc1`, the GI50 was 9.06 µM (inactive) in the test on 786-0; 2.52 µM (inactive) in the test on CCRF-CEM; 7.83 µM with HCT-15; 19.7 µM (inactive) with HOP-62; 18.7 µM (inactive) in the test on KM12; 5.85 µM (inactive) in the test with M14. Moreover, the GI50 in the test on MOLT-4 is 2.34 µM (inactive); with NCI-H460, 25.1 µM (inactive); in the test on RXF 393 it was 5.47 µM (inactive); in the test on SF-539, 7.33 µM (inactive); in the test with SK-MEL-28, 14 µM (inactive); in the test with SK-MEL-5, 13.5 µM (inactive). Also, the GI50 was 2.76 µM (inactive) in the test on SR, 9.29 µM (inactive) in the test with U-251, 12.9 µM (inactive) in the test with UACC-62 and 17.2 µM (inactive) in the test with UO-31.
Take `COc1ccc(CCc2cc(OC)cc(OC)c2)cc1`: the GI50 was 47.1 µM (inactive) in the test with 786-0; 15.6 µM (inactive) in the test on CCRF-CEM; 7.06 µM in the test on HCT-15; 16.7 µM (inactive) in the test with HOP-62; 4.92 µM (inactive) with KM12; 25.2 µM (inactive) in the test on M14. Moreover, the GI50 with MOLT-4 was 8.17 µM (inactive); in the test on NCI-H460, 22 µM (inactive); with RXF 393 it was 18 µM (inactive); in the test on SF-539, 31.6 µM (inactive); in the test on SK-MEL-28, 29.6 µM (inactive); with SK-MEL-5, 19.2 µM (inactive). For the same compound, the GI50 is 9.71 µM (inactive) in the test with SR, 31.6 µM (inactive) with U-251, 11.9 µM (inactive) with UACC-62 and 52.7 µM (inactive) in the test with UO-31.

Usually GI50 stands for the concentration that inhibits growth by half.
